Measurements reported in patent publication US8440628B2, “Medical compositions containing ghrelin” (Daiichi Sankyo Company, Limited, priority 2002, dated 2013).

Key:
[1] = Stability of human ghrelin(1-7)amide in pH-adjusted purified water at 25°C (Example 8); assay type: physicochemical; conditions: for Peak area ratio to total peak area: 25±2°C
Experimental: Human ghrelin(1-7)amide was dissolved in the purified water with about 0.12 μmol/mL (0.1 mg/mL). The pH of this solution was 5.0. This solution was divided into quarter, and one portion was kept alone and the pH values of the remaining three portions were adjusted to pH 1.8 (with 17 mM of hydrochloric acid), pH 4.1 (with 0.05 mM of hydrochloric acid) and pH 7.9 (with 0.20 mM of sodium hydroxide) respectively, by adding with hydrochloric acid or sodium hydroxide aqueous solution.
These four solutions were stored at 25±2° C. for 1 and 3 day, and after storage, the HPLC analyses of each solutions were conducted to calculate the peak area ratio of human ghrelin(1-7)amide, desacyl human ghrelin(1-7)amide and [3-dehydroalanine]-human ghrelin(1-7)amide to the total peak area.

[2] = compared with human ghrelin; cited from earlier work
[3] = Adsorption inhibiting effect of anti-adsorbents on human ghrelin in glass and polypropylene test tubes (Example 9); assay type: physicochemical; conditions: for Adsorption inhibiting effect: added at 0.01% or 0.1% to human ghrelin 1.0 μg/mL solution; for Human ghrelin concentration of the solution (Initial Conc. = 100): human ghrelin 1.0 μg/mL in 5% mannitol-0.05M glycine hydrochloride buffer (pH 3.5)
Experimental: As the anti-adsorbent, the surfactant, that is, polyoxyethylene sorbitan monooleate (hereinafter, referred to as Tween® 80), and benzalkonium chloride were selected.
The anti-adsorbent was added to this solution with 0.01% or 0.1% concentration.
The human ghrelin concentrations of each solution were measured by HPLC method right after preparation, and these solutions were replaced in glass test tubes. After that, each solution were further replaced in new glass test tubes, and same operation was repeated for 5 and 10 times, then, the human ghrelin concentrations of each treated solution were measured by HPLC method. As a control, the solution not containing anti-adsorbent was examined.
Same procedure was repeated by using test tube made by polypropylene instead of glass test tube.

[4] = human ghrelin(1-7)amide 0.1 mg/mL in purified water adjusted to pH 1.8 with hydrochloric acid, 1 day after
[5] = human ghrelin(1-7)amide 0.1 mg/mL in purified water adjusted to pH 1.8 with hydrochloric acid, 3 days after
[6] = human ghrelin(1-7)amide 0.1 mg/mL in purified water adjusted to pH 1.8 with hydrochloric acid, before storage
[7] = human ghrelin(1-7)amide 0.1 mg/mL in purified water adjusted to pH 4.1 with hydrochloric acid, 1 day after
[8] = human ghrelin(1-7)amide 0.1 mg/mL in purified water adjusted to pH 4.1 with hydrochloric acid, 3 days after
[9] = human ghrelin(1-7)amide 0.1 mg/mL in purified water adjusted to pH 4.1 with hydrochloric acid, before storage
[10] = human ghrelin(1-7)amide 0.1 mg/mL in purified water adjusted to pH 7.9 with sodium hydroxide, 1 day after
[11] = human ghrelin(1-7)amide 0.1 mg/mL in purified water adjusted to pH 7.9 with sodium hydroxide, 3 days after
[12] = human ghrelin(1-7)amide 0.1 mg/mL in purified water adjusted to pH 7.9 with sodium hydroxide, before storage
[13] = human ghrelin(1-7)amide 0.1 mg/mL in purified water, pH 5.0 (not adjusted), 1 day after
[14] = human ghrelin(1-7)amide 0.1 mg/mL in purified water, pH 5.0 (not adjusted), 3 days after
[15] = human ghrelin(1-7)amide 0.1 mg/mL in purified water, pH 5.0 (not adjusted), before storage
[16] = anti-adsorbent 0.01%, Glass tube, replaced 5 times
[17] = anti-adsorbent 0.01%, Glass tube, replaced 10 times
[18] = anti-adsorbent 0.01%, Initial Conc.
[19] = anti-adsorbent 0.01%, Polypropylene tube, replaced 5 times
[20] = anti-adsorbent 0.01%, Polypropylene tube, replaced 10 times
[21] = anti-adsorbent 0.1%, Glass tube, replaced 5 times
[22] = anti-adsorbent 0.1%, Glass tube, replaced 10 times
[23] = anti-adsorbent 0.1%, Initial Conc.
[24] = anti-adsorbent 0.1%, Polypropylene tube, replaced 5 times
[25] = anti-adsorbent 0.1%, Polypropylene tube, replaced 10 times

Substance	Peak area ratio to total peak area [1, 4] [%]	Peak area ratio to total peak area [1, 5] [%]	Peak area ratio to total peak area [1, 6] [%]	Peak area ratio to total peak area [1, 7] [%]	Peak area ratio to total peak area [1, 8] [%]	Peak area ratio to total peak area [1, 9] [%]	Peak area ratio to total peak area [1, 10] [%]	Peak area ratio to total peak area [1, 11] [%]	Peak area ratio to total peak area [1, 12] [%]	Peak area ratio to total peak area [1, 13] [%]	Peak area ratio to total peak area [1, 14] [%]	Peak area ratio to total peak area [1, 15] [%]	Adsorption inhibiting effect [3]	Human ghrelin concentration of the solution (Initial Conc. = 100) [3, 16]	Human ghrelin concentration of the solution (Initial Conc. = 100) [3, 17]	Human ghrelin concentration of the solution (Initial Conc. = 100) [3, 18]	Human ghrelin concentration of the solution (Initial Conc. = 100) [3, 19]	Human ghrelin concentration of the solution (Initial Conc. = 100) [3, 20]	Human ghrelin concentration of the solution (Initial Conc. = 100) [3, 21]	Human ghrelin concentration of the solution (Initial Conc. = 100) [3, 22]	also measured
Human ghrelin(1-7)amide	95.40	90.11	98.39	98.68	98.60	98.76	95.89	92.54	98.22	98.57	98.51	98.69									Production of the degradation products ([1]; aqueous solution of pH 4.1 and 5.0, 25±2°C, up to 3 days): inhibited; Peak area ratio to total peak area ([1]; human ghrelin(1-7)amide 0.1 mg/mL in purified water adjusted to pH 1.8 with hydrochloric acid, 1 day after, listed as human ghrelin(1-7)amide): less than 98%; Peak area ratio to total peak area ([1]; human ghrelin(1-7)amide 0.1 mg/mL in purified water adjusted to pH 7.9 with sodium hydroxide, 1 day after, listed as human ghrelin(1-7)amide): less than 98%; pH of the solution ([1]; human ghrelin(1-7)amide dissolved in purified water, about 0.12 μmol/mL (0.1 mg/mL)): 5.0; Biological activity [2]: same biological activity as human ghrelin
[3-dehydroalanine]-human ghrelin(1-7)amide	0.07	0.10	0.02	0.03	0.01	0.00	0.23	0.54	0.03	0.02	0.06	0.00									
benzalkonium chloride													high adsorption inhibiting effect against both glass tube and polypropylene tube	81	64	100	97	96	99	99	Human ghrelin concentration of the solution (Initial Conc. = 100) [3, 23]: 100; Human ghrelin concentration of the solution (Initial Conc. = 100) [3, 24]: 99; Human ghrelin concentration of the solution (Initial Conc. = 100) [3, 25]: 101
desacyl human ghrelin(1-7)amide	3.75	8.89	0.98	0.73	0.77	0.72	3.21	6.21	1.12	0.73	0.79	0.70									
polyoxyethylene sorbitan monooleate [Tween 80]													high adsorption inhibiting effect against polypropylene tube	17	0	100	90	90	20	5	Human ghrelin concentration of the solution (Initial Conc. = 100) [3, 23]: 100; Human ghrelin concentration of the solution (Initial Conc. = 100) [3, 24]: 93; Human ghrelin concentration of the solution (Initial Conc. = 100) [3, 25]: 91
